Consider 2 molecules from publication PMC6193951, “Intra- and inter-protein couplings of backbone motions underlie protein thiol-disulfide exchange cascade” (Scientific Reports, 2018).

The Kd is a measure of binding affinity in units of concentration. A higher Kd goes with lower affinity.

Numbering of substitutions follows the chain as printed. Names and notes keep the numbering of the source.

The target of assay [1] is T1, B. subtilis ArsC (Bs_ArsC), reduced state re-ArsC (Bacillus subtilis, UniProt P45947).
T1 construct: full-length, 139 residues; recombinant, prepared as previously reported; reduced state (C10, C82, C89 free thiols)
T1 sequence (P45947 1-139): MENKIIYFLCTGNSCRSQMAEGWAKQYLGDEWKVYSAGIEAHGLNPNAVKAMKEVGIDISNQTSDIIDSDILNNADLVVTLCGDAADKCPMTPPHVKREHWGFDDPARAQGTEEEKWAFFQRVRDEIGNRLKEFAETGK
The assay is described as follows: isothermal titration calorimetry. The class given is binding. A general note: In ITC the heat of successive injections is recorded.

Assay [2] addresses T2, B. subtilis arsenate reductase ArsC_C10SC15AC82S mutant (ArsC in the Trx-complexed state) (B. subtilis, UniProt P45947 1-139, C10S | C15A | C82S, C89 forms an intermolecular disulfide bond with Trx (C89^ArsC-C29^Trx); 15N-labeled in one sample, unlabeled in the other).
T2 construct: Thioredoxin-coupled arsenate reductase ArsC, Bacillus subtilis; triple mutant C10S/C15A/C82S used to trap the mixed-disulfide complex; also called c-ArsC; source: purity greater than 95% by SDS-PAGE
T2 sequence: T1 sequence (P45947 1-139) with C10S, C15A, C82S
Put plainly: preparation of a mixed-disulfide complex (DTNB incubation), studied by NMR (15N CPMG RD, CEST); Trx_C32S and ArsC_C10SC15AC82S linked by an intermolecular disulfide with the 5,5-dithiobis(2-nitrobenzoic acid) incubation protocol; NMR samples in 20 mM Tris-HCl (pH 6.85), 40 mM KCl, 20 mM urea, 20 mM Na2SO4; 25 °C. The settings on record: both partners purified.

`O=S(=O)(O)O` [sulfate] gave a Kd in assay [1] of 700 µM.

B1: B. subtilis thioredoxin Trx_C32S mutant (Trx in the ArsC-complexed state) (enzyme)
chain: MAIVKATDQSFSAETSEGVVLADFWAPWCGPSKMIAPVLEELDQEMGDKLKIVKIDVDENQETAGKYGVMSIPTLLVLKDGEVVETSVGFKPKEALQELVNKHL
modifications: C29 in the mixed disulfide with ArsC C89 (C89^ArsC-C29^Trx); 15N-labeled in one sample, unlabeled in the other
notes: Thioredoxin (Trx), Bacillus subtilis; C32S mutant used to trap the mixed-disulfide complex; also called c-Trx; source: purity greater than 95% by SDS-PAGE
With B1, the binding result in assay [2] is “binds”.
